Results from US20180215734A1, “PYRIMIDINE DERIVATIVES AS KINASE INHIBITORS AND THEIR THERAPEUTICAL APPLICATIONS” (NantBioScience, Inc., priority 2016, published 2018).

Columns and labels:
KDR(h) = KDR(h) (Homo sapiens, UniProt P35968); assay: Kinase assay, KDR(h); assay type: biochemical
Method: (§1) Kinase assay protocols well known to those of ordinary skill in the art were used. Specifically, the buffer composition was as follows: 20 mM MOPS, 1 mM EDTA, 0.01% Brij-35, 5% Glycerol, 0.1% β-mercaptoethanol, 1 mg/mL BSA. Test compounds were initially dissolved in DMSO at the desired concentration, then serially diluted to the kinase assay buffer. In a final reaction volume of 25 μL FGFR1(h) (5-10 mU) and KDR(h) (5-10 mU) are incubated with 8 mM MOPS pH 7.0, 0.2 mM EDTA, 200 μM LRRASLG (Kemptide), 10 mM magnesium acetate and [γ^33P-ATP]. The reaction was initiated by the addition of the MgATP mix. After incubation for 40 minutes at room temperature, the reaction was stopped by addition of 5 μL of a 3% phosphoric acid solution. Ten L of the reaction was then spotted onto a P30 filter mat and washed three times for 5 minutes in 50 mM phosphoric acid and once in methanol prior to drying and scintillation counting. Wells containing substrate but no kinase and wells containing a phosphopeptide control were used to set 0% and 100% phosphorylation value, respectively.
Of all of the steps in developing a drug, the hardest is finding promising compounds. (See, e.g., Malo et al., “Statistical practice in high-throughput screening data analysis,” Nature Biotechnology, 2006, 24, 167-75.) Kinase inhibitors often also have an anti-proliferative effect. […] The kinase inhibitory activity Compound 19 was tested using the kinase assay described in Example 3. […] These mutations in the tested kinases are thought to play an important role in transformation of some cancers.

KG1a = assay: Inhibition of proliferation (CellTiterblue, 72 hr), KG1a; assay type: cell-based, human
Method: (§2) A number of studies were performed to analyze the consequences of tyrosine kinase inhibition in cell lines. To do this, 1000 cells are seeded in 27 μl/well in 384-well microplates, which are then placed in a humidified CO2 incubator at 37° C. overnight. The next day, 3 μl/well of 10× concentrated drug is added and the plates are returned to the incubator for 72 hr. After 72 hr incubation, plates are removed and 6 μl/well CellTiterblue (Promega) viability reagent is added. Plates are returned to the incubator for 3 hrs, after which fluorescence measurements are read on the Victor X3 plate reader (Perkin Elmer). Data are analyzed using Excel (Microsoft), and GI50 values are determined using Prism (Graphpad).

SNU16 = assay: Inhibition of proliferation (CellTiterblue, 72 hr), SNU16; assay type: cell-based; details: Homo sapiens, SNU-16, 72 h
Method: as §2

FGFR1(V561M)(h) = FGFR1(V561M)(h) (Homo sapiens, UniProt P11362, V561M); assay: Kinase assay, FGFR1(V561M)(h); assay type: biochemical
Method: as §1
Of all of the steps in developing a drug, the hardest is finding promising compounds. (See, e.g., Malo et al., “Statistical practice in high-throughput screening data analysis,” Nature Biotechnology, 2006, 24, 167-75.) Kinase inhibitors often also have an anti-proliferative effect. […]

FGFR2(h) = FGFR2(h) (Homo sapiens, UniProt P21802); assay: Kinase assay, FGFR2(h); assay type: biochemical
FGFR2(N549H)(h) = FGFR2(N549H)(h) (Homo sapiens, UniProt P21802, N549H); assay: Kinase assay, FGFR2(N549H)(h); assay type: biochemical
FGFR3(h) = FGFR3(h) (Homo sapiens, UniProt P22607); assay: Kinase assay, FGFR3(h); assay type: biochemical
cSRC(h) = cSRC(h) (Homo sapiens, UniProt P12931); assay: Kinase assay, cSRC(h); assay type: biochemical
Flt3(h) = Flt3(h) (Homo sapiens, UniProt P36888); assay: Kinase assay, Flt3(h); assay type: biochemical
IGF-1R(h) = IGF-1R(h) (Homo sapiens, UniProt P08069); assay: Kinase assay, IGF-1R(h); assay type: biochemical
MEK1(h) = MEK1(h) (Homo sapiens, UniProt Q02750); assay: Kinase assay, MEK1(h); assay type: biochemical
Parental BaF3 cells = assay: BaF3 cell model, Parental; assay type: cell-based; details: Mus musculus, read-out: IC5o(nM) Parental
Text: (§3) In FIG. 1 these kinases are from the fibroblast growth factor receptor class of kinases (FGFR1-FGFR4). Compound 19 kinase inhibitory activity FGFR1-FGFR4 are also depicted in Table 5.

FGFR1 = target: T1, FGFR1 (Homo sapiens, UniProt P11362); assay: BaF3 cells engineered for expression of FGFR1; assay type: cell-based; details: read-out: IC5o(nM) FGFR1
T1 construct: expressed in transfected cells; host or cells: BaF3
Text: as §3

FGFR2 = target: T2, FGFR2 (Homo sapiens, UniProt P21802); assay: BaF3 cells engineered for expression of FGFR2; assay type: cell-based; details: read-out: IC5o(nM) FGFR2
T2 construct: expressed in transfected cells; host or cells: BaF3
Text: as §3

FGFR3 = target: T3, FGFR3 (Homo sapiens, UniProt P22607); assay: BaF3 cells engineered for expression of FGFR3; assay type: cell-based; details: read-out: IC5o(nM) FGFR3
T3 construct: expressed in transfected cells; host or cells: BaF3
Text: as §3

[1] = Pharmacokinetic profile in rats; assay type: in vivo; details: Rat
Text: Compound 19's pharmacokinetic profile is consistent with Compound 19 being used as a therapeutic agent.

[2] = Metabolic stability, mouse liver microsomes; assay type: in vitro ADME
[3] = Cellular toxicity, primary human hepatocyte; assay type: cell-based; details: primary hepatocytes
Text: (§4) Table 9 discloses toxicity data for compound 19 from various toxicity tests well known to those of ordinary skill.

CYP450 1A2 = CYP450 1A2 (Homo sapiens, UniProt P05177); assay: CYP450 inhibition, 1A2; assay type: in vitro ADME
Text: as §4

CYP450 2C8 = CYP450 2C8 (Homo sapiens, UniProt P10632); assay: CYP450 inhibition, 2C8; assay type: in vitro ADME
Text: as §4

CYP450 2C9 = CYP450 2C9 (Homo sapiens, UniProt P11712); assay: CYP450 inhibition, 2C9; assay type: in vitro ADME
Text: as §4

CYP450 2D6 = CYP450 2D6 (Homo sapiens, UniProt P10635); assay: CYP450 inhibition, 2D6; assay type: in vitro ADME
Text: as §4

CYP450 3A4 = CYP450 3A4 (Homo sapiens, UniProt P08684); assay: CYP450 inhibition, 3A4; assay type: in vitro ADME
Text: as §4

nude mouse model of AML = assay: Nude mouse model of AML (FIG. 2, FIG. 3); assay type: in vivo

KDR(h), sequence (P35968 20-1356): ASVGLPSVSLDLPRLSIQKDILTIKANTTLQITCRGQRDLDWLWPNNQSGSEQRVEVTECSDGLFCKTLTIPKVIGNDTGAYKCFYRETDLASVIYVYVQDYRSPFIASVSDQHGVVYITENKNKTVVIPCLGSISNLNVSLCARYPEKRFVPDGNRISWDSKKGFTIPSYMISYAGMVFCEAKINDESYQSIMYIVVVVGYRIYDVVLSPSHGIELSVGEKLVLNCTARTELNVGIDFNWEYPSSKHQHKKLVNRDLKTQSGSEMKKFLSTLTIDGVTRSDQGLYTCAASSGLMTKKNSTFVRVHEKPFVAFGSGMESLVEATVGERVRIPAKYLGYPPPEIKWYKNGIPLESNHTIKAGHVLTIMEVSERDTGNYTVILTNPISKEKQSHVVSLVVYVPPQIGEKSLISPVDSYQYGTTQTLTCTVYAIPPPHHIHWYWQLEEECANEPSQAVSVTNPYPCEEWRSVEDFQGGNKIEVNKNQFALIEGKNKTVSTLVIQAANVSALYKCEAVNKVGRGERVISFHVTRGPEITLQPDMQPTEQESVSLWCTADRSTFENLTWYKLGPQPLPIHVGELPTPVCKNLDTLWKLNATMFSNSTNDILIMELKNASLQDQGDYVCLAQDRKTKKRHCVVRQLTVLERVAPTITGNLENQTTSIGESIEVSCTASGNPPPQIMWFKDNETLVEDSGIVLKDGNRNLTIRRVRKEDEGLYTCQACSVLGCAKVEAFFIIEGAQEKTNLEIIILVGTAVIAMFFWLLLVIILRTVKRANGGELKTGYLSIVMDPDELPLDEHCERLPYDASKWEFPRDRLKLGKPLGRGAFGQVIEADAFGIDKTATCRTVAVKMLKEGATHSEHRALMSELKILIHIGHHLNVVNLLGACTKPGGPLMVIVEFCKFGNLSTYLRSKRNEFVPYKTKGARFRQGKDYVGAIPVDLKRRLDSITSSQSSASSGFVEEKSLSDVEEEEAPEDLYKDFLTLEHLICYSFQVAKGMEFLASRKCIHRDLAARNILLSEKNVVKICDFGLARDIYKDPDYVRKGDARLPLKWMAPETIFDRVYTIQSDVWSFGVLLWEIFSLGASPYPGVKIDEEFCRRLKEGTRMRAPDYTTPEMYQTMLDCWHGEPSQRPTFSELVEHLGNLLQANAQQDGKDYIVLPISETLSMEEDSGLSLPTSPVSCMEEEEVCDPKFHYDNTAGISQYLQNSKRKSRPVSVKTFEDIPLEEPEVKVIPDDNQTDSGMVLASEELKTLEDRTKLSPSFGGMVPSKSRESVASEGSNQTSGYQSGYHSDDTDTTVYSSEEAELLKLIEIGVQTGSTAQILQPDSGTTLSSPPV
FGFR3(h), sequence (P22607 23-806): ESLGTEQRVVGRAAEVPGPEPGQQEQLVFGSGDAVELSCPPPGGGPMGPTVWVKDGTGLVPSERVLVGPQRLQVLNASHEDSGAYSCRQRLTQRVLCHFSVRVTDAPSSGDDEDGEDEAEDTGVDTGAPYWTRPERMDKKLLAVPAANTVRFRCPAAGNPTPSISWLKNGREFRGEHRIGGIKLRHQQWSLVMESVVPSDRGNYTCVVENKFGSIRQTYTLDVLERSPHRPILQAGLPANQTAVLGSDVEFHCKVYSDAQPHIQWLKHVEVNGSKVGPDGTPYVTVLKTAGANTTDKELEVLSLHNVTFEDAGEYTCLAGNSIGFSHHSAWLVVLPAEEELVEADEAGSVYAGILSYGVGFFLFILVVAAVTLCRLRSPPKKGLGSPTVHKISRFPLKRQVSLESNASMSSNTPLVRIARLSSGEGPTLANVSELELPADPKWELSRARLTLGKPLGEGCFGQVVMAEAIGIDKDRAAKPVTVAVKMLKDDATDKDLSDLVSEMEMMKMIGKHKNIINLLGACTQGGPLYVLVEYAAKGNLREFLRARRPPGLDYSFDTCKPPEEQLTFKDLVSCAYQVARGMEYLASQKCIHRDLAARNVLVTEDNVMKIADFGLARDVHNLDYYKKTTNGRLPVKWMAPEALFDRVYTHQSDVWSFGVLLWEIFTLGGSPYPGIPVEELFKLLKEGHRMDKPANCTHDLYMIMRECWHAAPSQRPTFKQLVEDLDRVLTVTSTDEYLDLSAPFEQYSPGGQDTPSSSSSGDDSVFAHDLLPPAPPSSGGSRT
T3 sequence (P22607 23-806, species assumed): as the sequence (P22607 23-806) above
IGF-1R(h), sequence (P08069 31-1367): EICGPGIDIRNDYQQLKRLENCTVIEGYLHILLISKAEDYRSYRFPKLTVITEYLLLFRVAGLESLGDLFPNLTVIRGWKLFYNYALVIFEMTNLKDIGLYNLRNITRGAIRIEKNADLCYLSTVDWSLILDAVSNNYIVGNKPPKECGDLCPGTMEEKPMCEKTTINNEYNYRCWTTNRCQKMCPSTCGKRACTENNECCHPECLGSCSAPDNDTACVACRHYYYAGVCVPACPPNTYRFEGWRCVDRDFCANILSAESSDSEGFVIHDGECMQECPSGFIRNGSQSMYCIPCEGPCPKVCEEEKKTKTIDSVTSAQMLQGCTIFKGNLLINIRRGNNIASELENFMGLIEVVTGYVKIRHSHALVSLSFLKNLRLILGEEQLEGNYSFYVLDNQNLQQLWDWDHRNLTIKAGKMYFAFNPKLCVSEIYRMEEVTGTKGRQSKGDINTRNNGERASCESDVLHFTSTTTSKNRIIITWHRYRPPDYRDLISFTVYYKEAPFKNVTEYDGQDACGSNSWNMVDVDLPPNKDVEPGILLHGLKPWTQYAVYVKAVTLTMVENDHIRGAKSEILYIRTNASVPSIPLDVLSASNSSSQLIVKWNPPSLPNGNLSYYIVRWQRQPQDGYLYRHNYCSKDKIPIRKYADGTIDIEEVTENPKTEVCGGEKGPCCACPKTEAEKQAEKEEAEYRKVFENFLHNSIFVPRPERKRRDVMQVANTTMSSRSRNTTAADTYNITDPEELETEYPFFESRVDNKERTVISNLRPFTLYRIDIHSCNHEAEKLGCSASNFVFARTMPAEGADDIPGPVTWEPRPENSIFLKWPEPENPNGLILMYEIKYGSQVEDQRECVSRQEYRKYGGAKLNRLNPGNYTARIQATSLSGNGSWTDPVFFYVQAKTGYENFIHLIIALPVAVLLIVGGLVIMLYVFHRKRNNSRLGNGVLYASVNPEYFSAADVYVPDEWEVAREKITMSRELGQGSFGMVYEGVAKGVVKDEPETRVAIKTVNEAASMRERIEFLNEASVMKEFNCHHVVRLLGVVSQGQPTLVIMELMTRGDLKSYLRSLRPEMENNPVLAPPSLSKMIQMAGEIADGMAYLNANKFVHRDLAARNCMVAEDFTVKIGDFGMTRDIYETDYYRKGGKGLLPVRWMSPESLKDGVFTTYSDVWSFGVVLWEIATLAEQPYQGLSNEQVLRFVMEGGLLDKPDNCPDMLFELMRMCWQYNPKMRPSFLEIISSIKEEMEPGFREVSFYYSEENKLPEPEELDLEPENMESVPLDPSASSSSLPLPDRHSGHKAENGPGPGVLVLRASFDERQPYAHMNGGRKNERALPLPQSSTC
MEK1(h), sequence (Q02750 whole entry): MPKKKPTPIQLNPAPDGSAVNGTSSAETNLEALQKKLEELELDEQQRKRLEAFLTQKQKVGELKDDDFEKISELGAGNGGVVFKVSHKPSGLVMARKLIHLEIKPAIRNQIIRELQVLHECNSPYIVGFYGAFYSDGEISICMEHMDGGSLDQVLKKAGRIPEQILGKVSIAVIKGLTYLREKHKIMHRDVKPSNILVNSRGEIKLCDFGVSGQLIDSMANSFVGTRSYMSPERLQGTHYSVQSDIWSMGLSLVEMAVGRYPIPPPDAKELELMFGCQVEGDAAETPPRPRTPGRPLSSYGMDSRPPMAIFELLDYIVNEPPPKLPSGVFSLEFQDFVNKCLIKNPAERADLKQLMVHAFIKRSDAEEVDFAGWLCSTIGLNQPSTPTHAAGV
CYP450 2C9, sequence (P11712 whole entry): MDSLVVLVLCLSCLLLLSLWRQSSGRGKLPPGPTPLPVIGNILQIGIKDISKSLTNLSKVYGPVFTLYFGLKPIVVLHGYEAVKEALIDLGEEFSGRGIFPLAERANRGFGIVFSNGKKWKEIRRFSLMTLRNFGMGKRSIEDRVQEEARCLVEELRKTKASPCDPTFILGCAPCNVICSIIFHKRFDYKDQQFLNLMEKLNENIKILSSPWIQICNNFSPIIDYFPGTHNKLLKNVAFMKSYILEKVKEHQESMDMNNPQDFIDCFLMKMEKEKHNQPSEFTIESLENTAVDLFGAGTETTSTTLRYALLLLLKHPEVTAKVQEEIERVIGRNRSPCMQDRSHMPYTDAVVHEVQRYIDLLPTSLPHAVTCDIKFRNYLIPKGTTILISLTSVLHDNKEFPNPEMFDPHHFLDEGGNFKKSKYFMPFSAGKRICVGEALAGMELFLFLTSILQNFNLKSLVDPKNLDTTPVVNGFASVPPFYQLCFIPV
CYP450 3A4, sequence (P08684 whole entry): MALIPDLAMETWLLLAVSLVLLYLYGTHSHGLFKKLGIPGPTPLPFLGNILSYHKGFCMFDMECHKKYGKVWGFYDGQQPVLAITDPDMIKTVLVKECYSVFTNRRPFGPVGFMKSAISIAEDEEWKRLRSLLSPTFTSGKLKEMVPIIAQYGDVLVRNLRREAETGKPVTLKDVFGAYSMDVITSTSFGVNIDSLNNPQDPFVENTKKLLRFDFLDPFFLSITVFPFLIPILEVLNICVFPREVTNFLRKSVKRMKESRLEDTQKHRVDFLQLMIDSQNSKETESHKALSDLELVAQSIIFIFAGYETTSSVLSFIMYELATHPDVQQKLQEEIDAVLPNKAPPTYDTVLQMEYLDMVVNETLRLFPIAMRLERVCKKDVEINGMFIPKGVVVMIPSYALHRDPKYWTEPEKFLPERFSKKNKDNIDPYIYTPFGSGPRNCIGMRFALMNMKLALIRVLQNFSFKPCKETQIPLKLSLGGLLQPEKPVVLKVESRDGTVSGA

SMILES: Cc1cc2c(F)c(Oc3ncnc(Nc4ccc(N5C[C@@H](C)N[C@@H](C)C5)cc4)c3C#N)cc(F)c2[nH]1 [Compound 19]
- IC50 (KDR(h)): 485 nM
- inhibition at 1 µM (KDR(h)): 86%
- GI50 (KG1a; Homo sapiens, KG-1a, 72 hr): 0.2 nM
- Anti-proliferation activity in KG1a (in words) (KG1a; proliferation assay of Example 2): especially effective
- GI50 (SNU16): 12 nM
- IC50 (FGFR1(V561M)(h)): 134 nM
- IC50 (FGFR2(h)): 11 nM
- IC50 (FGFR2(N549H)(h)): 7 nM
- IC50 (FGFR3(h)): 12 nM
- IC50 (cSRC(h)): > 1000 nM
- IC50 (Flt3(h)): > 1000 nM
- IC50 (IGF-1R(h)): > 1000 nM
- IC50 (MEK1(h)): > 1000 nM
- IC50 (Parental BaF3 cells): 1890 nM
- IC50 (FGFR1): 11.4 nM
- IC50 (FGFR2): 17.6 nM
- IC50 (FGFR3): 32.6 nM
- Oral Bioavailability (% F) ([1]; PO 5 mg/Kg): 76 % F
- clearance ([1]; in vivo, IV 1 mg/Kg): 17.6 mL/min/kg
- half-life ([1]; in vivo, IV 1 mg/Kg, read-out: Terminal Half Life (converted)): 6.81 h
- Vd ([1]; in vivo, IV 1 mg/Kg, read-out: Vz): 9.54 L/kg
- half-life [2]: > 1 h
- CC50 [3]: 20000 nM
- IC50 (CYP450 1A2): 72000 nM
- IC50 (CYP450 2C8): 10600 nM
- IC50 (CYP450 2C9): 32900 nM
- IC50 (CYP450 2D6): > 100000 nM
- IC50 (CYP450 3A4): 67300 nM
- Antitumor activity (tumor cells expansion), FIG. 2 (nude mouse model of AML; both dosages tested): near complete suppression of the tumor cells expansion
- Animal weight as surrogate marker for toxicity, FIG. 3 (nude mouse model of AML; vs control): no difference between the control and compound 19 treated animals
